Experimental data published in patent US11377429B2, “Benzothia(di)azepine compounds and their use as bile acid modulators” (Albireo AB, priority 2020, dated 2022).

Target: T1, Human IBAT (Homo sapiens, UniProt Q12908)
T1 construct: expressed in transfected cells; cultured under Puromycin selection
T1 sequence (Q12908 1-348): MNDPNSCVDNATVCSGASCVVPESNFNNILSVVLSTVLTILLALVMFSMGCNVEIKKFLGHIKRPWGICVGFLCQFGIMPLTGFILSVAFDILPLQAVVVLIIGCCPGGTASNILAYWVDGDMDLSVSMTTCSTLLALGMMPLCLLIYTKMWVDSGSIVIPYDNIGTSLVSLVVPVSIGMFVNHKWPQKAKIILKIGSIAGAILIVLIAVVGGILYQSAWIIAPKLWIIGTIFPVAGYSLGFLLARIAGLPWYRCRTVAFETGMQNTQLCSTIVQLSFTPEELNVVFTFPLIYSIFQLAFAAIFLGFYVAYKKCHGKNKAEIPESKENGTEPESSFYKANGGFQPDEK
Experiment: IBAT (h/m) assay, human IBAT-overexpressing cells, 3H-taurocholic acid uptake
Type: cell-based
Details: read-out: hIBAT IC50
Procedure: IBAT (h/m) Assay Protocol
10,000 cells (Human or Mouse IBAT-overexpressing cells) were seeded in 96-wells plate (Corning CLS3809) in 200 μL MEM-alpha medium (Gibco 12571-063) supplemented with 10% FBS (Gibco 10438026) containing Puromycin (Gibco A1113803) (10 μg/mL) and incubated at 37° C. in 5% CO2 for 48 hours. After incubation, media was decanted from the wells and cells were washed two times with 300 μL of basal MEM-alpha medium (FBS-free). After decanting basal MEM-alpha medium each time, plates were tapped against paper towel to ensure maximum removal of residual media. Test inhibitor dilutions (highest test concentration being 10 μM, 3-fold serial dilution, 10 points) prepared in DMSO (Sigma D2650) were added in incubation mix (maintaining 0.2% final DMSO concentration) containing 0.25 μM 3H-taurocholic acid (ARC ART-1368) and 5 μM of cold taurocholic acid (Sigma T4009). 50 μL of incubation mix containing test inhibitors was then added to the wells (in duplicate) and the plates were incubated for 20 minutes in a CO2 incubator at 37° C. After incubation, the reaction was stopped by keeping the plates on ice water mix for 2-3 minutes and then the incubation mix was aspirated completely from the wells. The wells were washed two times with 250 μL of chilled unlabeled 1 mM taurocholic acid dissolved in HEPES (Gibco 15630080)-buffered (10 mM) HBSS (Gibco 14175079) (pH 7.4). The plates were tapped against a paper towel after every wash to ensure maximum removal of blocking buffer. 100 μL of MicroScint-20 (PerkinElmer 6013621) was added to the wells and kept overnight at room temperature before reading the plates in TopCount NXT™ Microplate Scintillation and Luminescence Counter from PerkinElmer under 3H Test protocol (set at 120 seconds reading time per well).
Preparation of Test Compound Dilutions
All test compounds were provided in powder form at room temperature. 10 mM DMSO stocks of the test compounds were prepared, aliquoted and stored at −20° C. From the 10 mM DMSO stock of the compounds, a 3-fold serial dilution in DMSO was prepared to get a total of 10 dilutions of the test compounds. 0.5 μL of this dilution in DMSO was added to 250 μL of FBS-free basal media containing 3H-taurocholic acid and cold taurocholic acid to prepare the incubation mixture.

Compound: CCCCC1(C)CN(c2ccc(F)cc2)c2cc(SC)c(OCC(O)C(=O)O)cc2S(=O)(=O)C1 (single isomer, unassigned) [1, diastereomer 1]
- IC50: 1 nM
